Data set [1] is described as follows: Stopped-flow reaction of compound with HOCl (fluorescence decay). As to conditions: 20 μM compound, 250 μM HOCl, up to 1 s. Here is the method:
The fast oxidation of RL7 was monitored in a stopped-flow spectrophotometer (Applied Photophysics SX20) using the intrinsic RL7 fluorescence (λex = 306 nm and λem = above 340 nm). The reaction of RL7 (20 μM in 0.3% DMSO) with HOCl (250 μM) was performed in phosphate buffer (20 mM, pH 7.4), diethylenetriaminepentaacetic acid (100 μM), and NaCl (140 mM). Data were obtained within 1 s.

Data set [2] has as its system MSU-induced paw edema. Briefly: MSU-induced paw edema, intraperitoneal treatment. Conditions: for effect on paw edema over time: i.p. 30 min before MSU, mefenamic acid 30 mg/kg, RL6 3, 10, 30, RL7 0.3, 3, 30, ZINC9089086 3, 10, 30 mg/kg, 6 h. The format is in vivo. The protocol: MSU-induced edema was performed as previously described.[22] The compounds were prepared by dilution in a solution containing 0.5% Tween 80 and 5% DMSO and then resuspended in PBS prior to administration. The animals were treated intraperitoneally (i.p.) with the following substances: vehicle (VEH: 5% DMSO; 0.5% Tween 80 in PBS), mefenamic acid (a nonsteroidal anti-inflammatory drug at a dosage of 30 mg/kg), RL6 (at doses of 3, 10, and 30 mg/kg), RL7 (at doses of 0.3, 3, and 30 mg/kg), or ZINC9089086 (at doses of 3, 10, and 30 mg/kg).[31] After 30 min, the mice were anesthetized using inhaled isoflurane (2% v/v in O2). A hypodermic syringe with a 31-gauge needle (BD, Franklin Lakes, NJ, USA) was used to administer the vehicle (VEH: PBS, 30 μL) or MSU (1.5 mg/30 μL) via the intraplantar route (i.pl.), into the right hind paw (Figure 9).
(§1) Paw volume (mL) was measured at various time points, including before injection (baseline, B), […] 1, 2, 3, 4, 5, and 6 h following MSU injection using a plethysmometer (Ugo Basile, Comerio, Italy) (Figure 7). For this, the injected hind paw was immersed into the dipping solution (6 mM NaCl diluted in distilled water and added with 2 mL/L of a wetting compound provided by the manufacturer) until the ankle. The extent of edema was quantified as a change in paw volume (Δ mL) by subtracting the basal paw volume from the volume of the paw measured at each time point. To evaluate the antiedematogenic effect of orally administered MPO inhibitors (p.o.), the animals were fasted for 1 h and then treated with equimolar doses of the following substances: vehicle (VEH: 5% DMSO; 0.5% tween 80 in PBS), mefenamic acid (30 mg/kg), RL 6 (33 mg/kg), RL 7 (54 mg/kg), RL 21 (30 mg/kg), or ZINC9089086 (34 mg/kg). After 1 h, the anesthetized mice (2% isoflurane, v/v in O2) received either the vehicle (PBS, 30 μL, i.pl.) or 1.5 mg/30 μL MSU (i.pl.). The paw volume was evaluated at the same time points as previously described. The percentage of edema inhibition by the compounds was calculated discounting the paw volume of mice that received oral or intraperitoneal vehicle and PBS intraplantar (VEH + VEH).

For data set [3], the system named is MSU-induced paw edema. Briefly: MSU-induced paw edema, oral treatment. The format is in vivo, male C57BL/6 mice. Here is the method:
as §1

Data set [4] concerns PARP1 in RPE1-hTERT cells. Briefly: PARP1 off-target assay: H2O2-induced ADP-ribosylation. As to conditions: RL6 1, 10 and 50 μM; olaparib 10 μM; 600 μM H2O2 for 10 min. The format is cell-based.
Experimental: After 1 h of pretreatment, the cells were treated with 600 μM H2O2 (Sigma) in PBS for 10 min at 37 °C. Cells were lysed in preheated Laemmli buffer devoid of beta-mercaptoethanol and bromophenol blue, and the lysates were boiled for 15 min. Protein concentration was determined using a BCA protein quantification kit (Pierce) and normalized. Beta-mercaptoethanol and bromophenol blue were then added, and the lysates were boiled again for 15 min. Proteins were separated in a 10% SDS-PAGE gel and then transferred to nitrocellulose membranes (Bio-Rad). […] Membranes were incubated with ECL Prime (Amersham), and the signals were detected using a Chemidoc MP Imaging System (Bio-Rad). […] Signals were quantified using ImageJ software.
(C) ADP-ribosylation in RPE1-hTERT cells was
triggered by H2O2 (600 µM) for 10 min. (D) Gel densitometry quantified by ImageJ
software, n=3. A concentration of 0.1% DMSO was used.
The next data set has as its target Human leukocyte MPO (Homo sapiens, UniProt P05164). Briefly: Reversibility test (residual peroxidase activity after 200-fold dilution). The format is biochemical. Details: Human leukocyte MPO (EC 1.7.1.11) was purchased from Planta Natural Products; purchased Planta Natural Products (Vienna, Austria); host or cells: human leukocytes. As to conditions: 100 nM MPO, 20 μM inhibitor, 30 min, then 200-fold dilution. The protocol:
Reversibility of the inhibition was analyzed by peroxidase residual activity.[77] […] After incubation, the system was diluted 200-fold using acetate buffer ([…], pH 5.4) in the presence of TMB (2 mM dissolved in 10% dimethylformamide). After a new hydrogen peroxide addition (2 μM), the oxidation of TMB was quantified at 655 nm.

SMILES strings stand for the structures.

Human leukocyte MPO, sequence (P05164 279-745 limits assumed): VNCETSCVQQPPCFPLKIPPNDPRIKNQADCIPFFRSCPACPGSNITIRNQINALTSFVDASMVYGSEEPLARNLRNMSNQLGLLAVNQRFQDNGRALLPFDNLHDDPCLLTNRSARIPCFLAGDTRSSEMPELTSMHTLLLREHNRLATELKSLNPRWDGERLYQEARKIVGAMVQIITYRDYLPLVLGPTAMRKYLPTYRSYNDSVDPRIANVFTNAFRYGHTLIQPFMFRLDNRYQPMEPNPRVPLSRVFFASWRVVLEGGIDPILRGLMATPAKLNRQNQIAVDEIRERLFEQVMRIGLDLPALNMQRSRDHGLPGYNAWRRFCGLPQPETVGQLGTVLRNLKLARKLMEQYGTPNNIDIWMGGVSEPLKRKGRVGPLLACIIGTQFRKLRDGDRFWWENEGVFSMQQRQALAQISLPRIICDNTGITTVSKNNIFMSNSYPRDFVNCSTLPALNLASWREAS
Human leukocyte MPO, sequence (P05164 165-278 limits assumed): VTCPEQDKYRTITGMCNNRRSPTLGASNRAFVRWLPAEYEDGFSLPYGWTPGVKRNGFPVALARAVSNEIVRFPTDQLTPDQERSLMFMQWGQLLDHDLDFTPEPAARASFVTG

Regarding `CN1CCc2nc3sc(C(=O)Nc4cccc(C#N)c4)c(N)c3cc2C1` [RL7], in data set [1], the “reaction with HOCl (fluorescence decay)” value is recorded as “rapidly reacts with HOCl”. In addition, the figures for the “reduction of paw edema (time-dependent AUC) vs VEH + MSU” value in the data set with MSU-induced paw edema [2] (3 mg/kg i.p.) and in the data set on MSU-induced paw edema [2] (30 mg/kg i.p.) were 82.8% and 90.2%, respectively. Further, the “effect on paw edema over time” value in the data set on MSU-induced paw edema [2] is listed as “inhibited paw edema at all of the tested doses”. The “inhibition of edema vs VEH + MSU” value in the data set on MSU-induced paw edema [3] (54 mg/kg po) stood at 74.3%.

On to `Nc1cc2c3c(cccc3c1)C(=O)N(N)C2=O` [RL6], for which, in data set [4], the “inhibition of H2O2-induced ADP-ribosylation” value is reported as “failed to inhibit”. The “reduction of paw edema (time-dependent AUC) vs VEH + MSU” value with MSU-induced paw edema [2] (10 mg/kg i.p.) came to 80.4%; with MSU-induced paw edema [2] (30 mg/kg i.p.) it was 83.2%. Moreover, the “acute toxicity observed in mice” value with MSU-induced paw edema [2] (during the in vivo tests) was “no sign of acute toxicity”. In the data set with MSU-induced paw edema [2], the “effect on paw edema over time” value is “significantly prevented paw edema”. Further, in the data set with MSU-induced paw edema [3] (33 mg/kg po), the “inhibition of edema vs VEH + MSU” value is recorded as 57.0%. Moreover, the “reversibility of MPO inhibition (residual peroxidase activity)” value on Human leukocyte MPO is recorded as “reversible inhibition”.
